This is an account of results in US20060142337A1, “Piperidine derivative and use thereof” (priority 2004, published 2006).

Structures can show the parent of a compound that is named as a salt.

For this assay, the target named is T1, substance P receptor (Homo sapiens, UniProt P25103).
T1 construct: endogenous in cells; host or cells: IM-9 human lymphoblast cells (membrane preparation)
T1 sequence (P25103 whole entry): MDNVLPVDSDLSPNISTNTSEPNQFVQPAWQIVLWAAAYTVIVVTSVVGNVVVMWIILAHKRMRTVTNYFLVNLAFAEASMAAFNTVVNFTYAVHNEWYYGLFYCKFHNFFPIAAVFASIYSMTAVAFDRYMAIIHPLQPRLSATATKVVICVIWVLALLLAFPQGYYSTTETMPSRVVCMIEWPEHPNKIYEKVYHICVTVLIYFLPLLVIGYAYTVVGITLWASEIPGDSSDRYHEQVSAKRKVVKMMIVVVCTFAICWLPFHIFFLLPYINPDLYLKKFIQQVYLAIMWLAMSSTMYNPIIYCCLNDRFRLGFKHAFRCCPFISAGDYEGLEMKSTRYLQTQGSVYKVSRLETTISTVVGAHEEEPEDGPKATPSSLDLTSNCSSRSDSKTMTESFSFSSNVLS
Put plainly: Radioligand receptor binding inhibitory activity using receptor from human lymphoblast cells (IM-9). The settings on record: [125I]-BHSP binding, receptor from IM-9 cells, 25 C, 30 min. Here is the method:
Radioligand receptor binding inhibitory activity (Binding inhibitory activity using receptor from human lymphoblast cells (IM-9))
The method of M. A. Cascieri et al., “Molecular Pharmacology 42, p. 458 (1992)” was modified and used. The receptor was. prepared from human lymphoblast cells (IM-9). IM-9 cells (2×10^5 cells/mL) were incubated for 3 days (one liter), which was then subjected to centrifuge for 5 min. at 500×G to obtain cell pellets. The obtained pellets were washed once with phosphate buffer (Flow Laboratories, CAT. No. 28-103-05), which were then homogenized using Polytron homogenizer (“Kinematika”, Germany) in 30 mL of 50 mM Tris-HCl buffer (pH 7.4) containing 120 mM sodium chloride, 5 mM potassium chloride, 2 μg/mL chymostatin, 40 μg/mL bacitracin, 5 μg/mL phosphoramidon, 0.5 mM phenylmethylsulfonyl fluoride, 1 mM ethylenediamine tetra-acetate, which was subjected to centrifuge at 40,000×G for 20 min. The residue was washed twice with 30 mL of the buffer, which was then preserved frozen (−80° C.) as a specimen of the receptor.
The specimen was suspended in a reaction buffer (50 mM Tris-HCl buffer (pH 7.4), 0.02% bovine serum albumin, 1 mM phenylmethylsulfonyl fluoride, 2 μg/mL chymostatin, 40 μg/mL bacitracin and 3 mM manganese chloride) to have protein in the concentration of 0.5 mg/mL of protein and 100 μL portion of the suspension was used in the reaction. After addition of the sample and ^125]-BHSP (0.46 KBq), the reaction was allowed to proceed in 0.2 mL of reaction buffer at […] for 30 min. The amount of nonspecific binding was determined by adding substance P at a final concentration of 2×10^−6 M.
After the reaction, using a cell harvester (290 PHD, Cambridge Technology, Inc, U.S.A.), filtration was carried out through a glass filter (GF/B, Whatman, U.S.A.), which was immersed in 0.1% polyethyleneimine for 24 hrs. and dried. After washing three times with 250 μL of 50 mM Tris-HCl buffer (pH 7.4) containing 0.02% bovine serum albumin, the radioactivity remaining on the filter was. determined with a gamma counter.
The antagonistic activity of each compound obtained in Examples was determined in terms of the concentration necessary to cause 50% inhibition (IC50 value) under the above-described conditions, and the results were shown in Table 14.
The radio ligand means substance P labeled with [^125I].
The term IC50 denotes the midpoint of a concentration-inhibition curve. Read a low IC50 as greater potency in that assay. Turning to `C[C@@H](O[C@H]1CCN(C(=O)C2CCN(C3CCOC3=O)CC2)C[C@H]1c1ccccc1)c1cc(C(F)(F)F)cc(C(F)(F)F)c1` (single isomer, unassigned) [Example 34, hydrochloride], the IC50 is 0.035 nM.
For `C[C@@H](O[C@H]1CCN(C(=O)C2CCN(C3CCOC3=O)CC2)C[C@H]1c1ccccc1)c1cc(C(F)(F)F)cc(C(F)(F)F)c1` (single isomer, unassigned) [Example 35, hydrochloride] the value was 0.043 nM; for `COc1ccc(-n2nnnc2C(F)(F)F)cc1C(C)N[C@H]1CCN(C(=O)C2CCN(C(C)=O)CC2)C[C@H]1c1ccccc1` (single isomer, unassigned) [Example 83], 0.058 nM; for `COc1ccc(-n2nnnc2C(F)(F)F)cc1C(C)N[C@H]1CCN(C(=O)CNC(C)=O)C[C@H]1c1ccccc1` (single isomer, unassigned) [Example 85], 0.09 nM.
Compound `CC(=O)N1CCC(C(=O)N2CC[C@H](O[C@H](C)c3cc(C(F)(F)F)cc(C(F)(F)F)c3)[C@H](c3ccccc3)C2)CC1` [Example 36, (3R,4S)-1-[(1-Acetylpiperidin-4-yl)carbonyl]-4-[(1R)-1-[3,5-bis(trifluoromethyl)phenyl]ethoxy]-3-phenylpiperidine] showed an IC50 of 0.026 nM.
For `CC(=O)NCC(=O)N1CCC(C(=O)N2CC[C@H](O[C@H](C)c3cc(C(F)(F)F)cc(C(F)(F)F)c3)[C@H](c3ccccc3)C2)CC1` [Example 38, N-[2-[4-[[(3R,4S)-4-[(1R)-1-[3,5-Bis(trifluoromethyl)phenyl]ethoxy]-3-phenylpiperidin-1-yl]carbonyl]piperidin-1-yl]-2-oxoethyl]acetamide] the value was 0.025 nM; for `C[C@@H](O[C@H]1CCN(C(=O)C2CCN(C(=O)Cn3cnnn3)CC2)C[C@H]1c1ccccc1)c1cc(C(F)(F)F)cc(C(F)(F)F)c1` [Example 39, (3R,4S)-4-[(1R)-1-[3,5-Bis(trifluoromethyl)phenyl]ethoxy]-3-phenyl-1-[[1-(1H-tetrazol-1-ylacetyl)piperidin-4-yl]carbonyl]piperidine], 0.032 nM.
For `C[C@@H](O[C@H]1CCN(C(=O)C2CCN(C(=O)N3CCNC3=O)CC2)C[C@H]1c1ccccc1)c1cc(C(F)(F)F)cc(C(F)(F)F)c1` [Example 40, 1-[[4-[[(3R,4S)-4-[(1R)-1-[3,5-Bis(trifluoromethyl)phenyl]ethoxy]-3-phenylpiperidin-1-yl]carbonyl]piperidin-1-yl]carbonyl]imidazolidin-2-one] the value was 0.038 nM; for `CC(=O)N[C@H]1CC[C@H](C(=O)N2CC[C@H](O[C@H](C)c3cc(C(F)(F)F)cc(C(F)(F)F)c3)[C@H](c3ccccc3)C2)CC1` [Example 42, N-[trans-4-[[(3R,4S)-4-[(1R)-1-[3,5-Bis(trifluoromethyl)phenyl]ethoxy]-3-phenylpiperidin-1-yl]carbonyl]cyclohexyl]acetamide], 0.023 nM.
Take `CCCC(=O)N[C@H]1CC[C@H](C(=O)N2CC[C@H](O[C@H](C)c3cc(C(F)(F)F)cc(C(F)(F)F)c3)[C@H](c3ccccc3)C2)CC1` [Example 44, N-[trans-4-[[(3R,4S)-4-[(1R)-1-[3,5-Bis(trifluoromethyl)phenyl]ethoxy]-3-phenylpiperidin-1-yl]carbonyl]cyclohexyl]butanamide]: the IC50 amounted to 0.053 nM.
For `CC(C)C(=O)N[C@H]1CC[C@H](C(=O)N2CC[C@H](O[C@H](C)c3cc(C(F)(F)F)cc(C(F)(F)F)c3)[C@H](c3ccccc3)C2)CC1` [Example 45, N-[trans-4-[[(3R,4S)-4-[(1R)-1-[3,5-Bis(trifluoromethyl)phenyl]ethoxy]-3-phenylpiperidin-1-yl]carbonyl]cyclohexyl]-2-methylpropanamide] the value was 0.05 nM; for `C[C@@H](O[C@H]1CCN(C(=O)[C@H]2CC[C@H](NC(=O)C3CC3)CC2)C[C@H]1c1ccccc1)c1cc(C(F)(F)F)cc(C(F)(F)F)c1` [Example 46, N-[trans-4-[[(3R,4S)-4-[(1R)-1-[3,5-Bis(trifluoromethyl)phenyl]ethoxy]-3-phenylpiperidin-1-yl]carbonyl]cyclohexyl]cyclopropanecarboxamide], 0.061 nM; for `CNC(=O)N[C@H]1CC[C@H](C(=O)N2CC[C@H](O[C@H](C)c3cc(C(F)(F)F)cc(C(F)(F)F)c3)[C@H](c3ccccc3)C2)CC1` [Example 47, N-[trans-4-[[(3R,4S)-4-[(1R)-1-[3,5-Bis(trifluoromethyl)phenyl]ethoxy]-3-phenylpiperidin-1-yl]carbonyl]cyclohexyl]-N′-methylurea], 0.036 nM.
To `C[C@@H](O[C@H]1CCN(C(=O)[C@H]2CC[C@H](NS(C)(=O)=O)CC2)C[C@H]1c1ccccc1)c1cc(C(F)(F)F)cc(C(F)(F)F)c1` [Example 49, N-[trans-4-[[(3R,4S)-4-[(1R)-1-[3,5-Bis(trifluoromethyl)phenyl]ethoxy]-3-phenylpiperidin-1-yl]carbonyl]cyclohexyl]methanesulfonamide] belongs 0.055 nM; to `C[C@@H](O[C@H]1CCN(C(=O)[C@H]2CC[C@H](NC(=O)c3cccs3)CC2)C[C@H]1c1ccccc1)c1cc(C(F)(F)F)cc(C(F)(F)F)c1` [Example 51, N-[trans-4-[[(3R,4S)-4-[(1R)-1-[3,5-Bis(trifluoromethyl)phenyl]ethoxy]-3-phenylpiperidin-1-yl]carbonyl]cyclohexyl]thiophene-2-carboxamide], 0.077 nM.
For `CC(=O)N[C@H]1CC[C@@H](C(=O)N2CC[C@H](O[C@H](C)c3cc(C(F)(F)F)cc(C(F)(F)F)c3)[C@H](c3ccccc3)C2)CC1` [Example 54, N-[cis-4-[[(3R,4S)-4-[(1R)-1-[3,5-Bis(trifluoromethyl)phenyl]ethoxy]-3-phenylpiperidin-1-yl]carbonyl]cyclohexyl]acetamide] the value was 0.075 nM; for `C[C@@H](O[C@H]1CCN(C(=O)[C@H]2CC[C@H](NC(=O)CN3CCCCC3=O)CC2)C[C@H]1c1ccccc1)c1cc(C(F)(F)F)cc(C(F)(F)F)c1` [Example 57, N-[trans-4-[[(3R,4S)-4-[(1R)-1-[3,5-Bis(trifluoromethyl)phenyl]ethoxy]-3-phenylpiperidin-1-yl]carbonyl]cyclohexyl]-2-(2-oxopiperidin-1-yl)acetamide], 0.057 nM.
Turning to `C[C@@H](O[C@H]1CCN(C(=O)[C@H]2CC[C@H](NC(=O)CCCCCl)CC2)C[C@H]1c1ccccc1)c1cc(C(F)(F)F)cc(C(F)(F)F)c1` [Example 59, N-[trans-4-[[(3R,4S)-4-[(1R)-1-[3,5-Bis(trifluoromethyl)phenyl]ethoxy]-3-phenylpiperidin-1-yl]carbonyl]cyclohexyl]-5-chloropentanamide], the IC50 was 0.087 nM.
For `COC(=O)N[C@H]1CC[C@H](C(=O)N2CC[C@H](O[C@H](C)c3cc(C(F)(F)F)cc(C(F)(F)F)c3)[C@H](c3ccccc3)C2)CC1` [Example 61, Methyl trans-4-[[(3R,4S)-4-[(1R)-1-[3,5-bis(trifluoromethyl)phenyl]ethoxy]-3-phenylpiperidin-1-yl]carbonyl]cyclohexylcarbamate] the value was 0.098 nM; for `CCNC(=O)N[C@H]1CC[C@H](C(=O)N2CC[C@H](O[C@H](C)c3cc(C(F)(F)F)cc(C(F)(F)F)c3)[C@H](c3ccccc3)C2)CC1` [Example 63, N-[trans-4-[[(3R,4S)-4-[(1R)-1-[3,5-Bis(trifluoromethyl)phenyl]ethoxy]-3-phenylpiperidin-1-yl]carbonyl]cyclohexyl]-N′-ethylurea], 0.075 nM.
To `CC(C)NC(=O)N[C@H]1CC[C@H](C(=O)N2CC[C@H](O[C@H](C)c3cc(C(F)(F)F)cc(C(F)(F)F)c3)[C@H](c3ccccc3)C2)CC1` [Example 65, N-[trans-4-[[(3R,4S)-4-[(1R)-1-[3,5-Bis(trifluoromethyl)phenyl]ethoxy]-3-phenylpiperidin-1-yl]carbonyl]cyclohexyl]-N′-isopropylurea] belongs 0.099 nM.
For `C[C@@H](O[C@H]1CCN(C(=O)[C@H]2CC[C@H](NC(=O)N(C)C)CC2)C[C@H]1c1ccccc1)c1cc(C(F)(F)F)cc(C(F)(F)F)c1` [Example 66, N′-[trans-4-[[(3R,4S)-4-[(1R)-1-[3,5-Bis(trifluoromethyl)phenyl]ethoxy]-3-phenylpiperidin-1-yl]carbonyl]cyclohexyl]-N,N-dimethylurea] the value was 0.072 nM; for `CNC(=O)[C@H]1CC[C@H](C(=O)N2CC[C@H](O[C@H](C)c3cc(C(F)(F)F)cc(C(F)(F)F)c3)[C@H](c3ccccc3)C2)CC1` [Example 68, trans-4-[[(3R,4S)-4-[(1R)-1-[3,5-Bis(trifluoromethyl)phenyl]ethoxy]-3-phenylpiperidin-1-yl]carbonyl]-N-methylcyclohexanecarboxamide], 0.094 nM.
